Results taken from patent US7138361B2, “Herbicidal heterocycles” (E. I. du Pont de Nemours and Company, priority 2000, dated 2006).

How the values were obtained:
Assay type in all cases: in vivo
[1] = test system: wheat (Triticum aestivum); experiment: Test B postemergence; conditions: 13 to 15 days
Outline: (§1)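 Ratings on a 0 to 100 visual scale (100 complete control) compare treated plants with controls 13 to 15 days after application. Treatments were pre- or postemergence sprays of compound in non-phytotoxic solvent with surfactant.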

[2] = test system: velvetleaf (Abutilon theophrasti); experiment: Test B postemergence; conditions: 13 to 15 days
Outline: as §1

[3] = test system: cocklebur (Xanthium strumarium); experiment: Test B postemergence; conditions: 13 to 15 days
Outline: as §1

[4] = test system: crabgrass (Digitaria sanguinalis); experiment: Test B postemergence; conditions: 13 to 15 days
Outline: as §1

[5] = test system: corn (Zea mays); experiment: Test B postemergence; conditions: 13 to 15 days
Outline: as §1

[6] = test system: Surinam grass (Brachiaria decumbens); experiment: Test B postemergence; conditions: 13 to 15 days
Outline: as §1

[7] = test system: giant foxtail (Setaria faberii); experiment: Test B postemergence; conditions: 13 to 15 days
Outline: as §1

[8] = test system: wild oat (Avena fatua); experiment: Test B postemergence; conditions: 13 to 15 days
Outline: as §1

[9] = test system: lambsquarters (Chenopodium album); experiment: Test B postemergence; conditions: 13 to 15 days
Outline: as §1

[10] = test system: pigweed (Amaranthus retroflexus); experiment: Test B postemergence; conditions: 13 to 15 days
Outline: as §1

[11] = test system: morning glory (Ipomoea hederacea); experiment: Test B postemergence; conditions: 13 to 15 days
Outline: as §1

[12] = test system: barnyardgrass (Echinochloa crus-galli); experiment: Test B postemergence; conditions: 13 to 15 days
Outline: as §1

[13] = test system: blackgrass (Alopecurus myosuroides); experiment: Test B postemergence; conditions: 13 to 15 days
Outline: as §1

[14] = test system: rice (Oryza saliva); experiment: Test B preemergence
Outline: as §1

[15] = test system: velvetleaf (Abutilon theophrasti); experiment: Test B preemergence
Outline: as §1

[16] = test system: cocklebur (Xanthium strumarium); experiment: Test B preemergence
Outline: as §1

[17] = test system: crabgrass (Digitaria sanguinalis); experiment: Test B preemergence
Outline: as §1

[18] = test system: corn (Zea mays); experiment: Test B preemergence
Outline: as §1

[19] = test system: Surinam grass (Brachiaria decumbens); experiment: Test B preemergence
Outline: as §1

[20] = test system: giant foxtail (Setaria faberii); experiment: Test B preemergence
Outline: as §1

[21] = test system: lambsquarters (Chenopodium album); experiment: Test B preemergence
Outline: as §1

[22] = test system: pigweed (Amaranthus retroflexus); experiment: Test B preemergence
Outline: as §1

[23] = test system: morning glory (Ipomoea hederacea); experiment: Test B preemergence
Outline: as §1

[24] = test system: barnyardgrass (Echinochloa crus-galli); experiment: Test B preemergence
Outline: as §1

[25] = test system: rice (Oryza saliva); experiment: Test B flooded paddy test; conditions: Rate 1000 g/ha, scale of 0 to 100 where 0 is no effect and 100 is complete control, visually evaluated after 13 to 15 days
Outline: (§2)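 Treatment: formulated chemical applied to flooded paddy plants at 2-leaf stage. Hold: greenhouse, 13–15 days. Scoring: visual comparison to controls, 0 (no effect) to 100 (complete control).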

[26] = test system: smallflower flatsedge (Cyperus difformis); experiment: Test B flooded paddy test; conditions: Rate 1000 g/ha, scale of 0 to 100 where 0 is no effect and 100 is complete control, visually evaluated after 13 to 15 days
Outline: as §2

[27] = test system: duck salad (Heteranthera limosa); experiment: Test B flooded paddy test; conditions: Rate 1000 g/ha, scale of 0 to 100 where 0 is no effect and 100 is complete control, visually evaluated after 13 to 15 days
Outline: as §2

[28] = test system: barnyardgrass (Echinochloa crus-galli); experiment: Test B flooded paddy test; conditions: Rate 1000 g/ha, scale of 0 to 100 where 0 is no effect and 100 is complete control, visually evaluated after 13 to 15 days
Outline: as §2

[29] = test system: rice (Oryza saliva); experiment: Test C flooded paddy test; conditions: for Rice plant response rating: Flooded Paddy, scale 0 to 100, 0 no effect, 100 complete control; for Plant response rating, Rice: flooded paddy test, scale 0 to 100 (0 no effect, 100 complete control)
Outline: (§3)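 Visually assessed vs untreated controls 12–14 d post-treatment (greenhouse). Flooded paddy plants were at the 2-leaf stage; scale 0 = no effect, 100 = complete control.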

[30] = test system: smallflower flatsedge (Cyperus difformis); experiment: Test C flooded paddy test; conditions: for Flatsedge plant response rating: Flooded Paddy, scale 0 to 100, 0 no effect, 100 complete control; for Plant response rating, Flatsedge: flooded paddy test, scale 0 to 100 (0 no effect, 100 complete control)
Outline: as §3

[31] = test system: duck salad (Heteranthera limosa); experiment: Test C flooded paddy test; conditions: for Ducksalad plant response rating: Flooded Paddy, scale 0 to 100, 0 no effect, 100 complete control; for Plant response rating, Ducksalad: flooded paddy test, scale 0 to 100 (0 no effect, 100 complete control)
Outline: as §3

[32] = test system: barnyardgrass (Echinochloa crus-galli); experiment: Test C flooded paddy test; conditions: for Barnyardgrass plant response rating: Flooded Paddy, scale 0 to 100, 0 no effect, 100 complete control; for Plant response rating, Barnyardgrass: flooded paddy test, scale 0 to 100 (0 no effect, 100 complete control)
Outline: as §3

[33] = Rate 125 g/ha, scale 0 (no effect) to 100 (complete control)
[34] = Rate 500 g/ha, scale 0 to 100, 0 is no effect, 100 is complete control
[35] = Preemergence, Rate 500 g/ha, scale 0 to 100, 0 no effect, 100 complete control
[36] = preemergence, Rate 125 g/ha, scale of 0 to 100 where 0 is no effect and 100 is complete control, 13 to 15 days

CC(C)(C)c1ccn(C2CCN(c3cc(C(F)(F)F)cc(C(F)(F)F)c3)C2=O)n1 (centres unmarked) [Compound 54]
Plant response rating, Wheat [1, 33]: 0 | Plant response rating, Wheat [1, 34]: 0 | Plant response rating, Velvetleaf [2, 33]: 0 | Plant response rating, Velvetleaf [2, 34]: 0 | Plant response rating, Cocklebur [3, 33]: 0 | Plant response rating, Cocklebur [3, 34]: 20 | Plant response rating, Crabgrass [4, 33]: 0 | Plant response rating, Crabgrass [4, 34]: 0 | Plant response rating, Corn [5, 33]: 0 | Plant response rating, Corn [5, 34]: 0 | Plant response rating, Surinam grass [6, 33]: 0 | Plant response rating, Surinam grass [6, 34]: 0 | Plant response rating, Foxtail, Giant [7, 33]: 0 | Plant response rating, Foxtail, Giant [7, 34]: 0 | Plant response rating, Wild Oat [8, 33]: 0 | Plant response rating, Wild Oat [8, 34]: 0 | Plant response rating, Lambsquarters [9, 33]: 0 | Plant response rating, Lambsquarters [9, 34]: 30 | Plant response rating, Pigweed [10, 33]: 0 | Plant response rating, Pigweed [10, 34]: 0 | Plant response rating, Morningglory [11, 33]: 0 | Plant response rating, Morningglory [11, 34]: 20 | Plant response rating, Barnyardgrass [12, 33]: 0 | Plant response rating, Barnyardgrass [12, 34]: 0 | Plant response rating, Blackgrass [13, 33]: 0 | Plant response rating, Blackgrass [13, 34]: 0 | Plant response rating, Rice [14, 35]: 0 | Plant response rating, Rice [14, 36]: 0 | Plant response rating, Velvetleaf [15, 35]: 0 | Plant response rating, Velvetleaf [15, 36]: 0 | Plant response rating, Cocklebur [16, 35]: 0 | Plant response rating, Cocklebur [16, 36]: 0 | Plant response rating, Crabgrass [17, 35]: 0 | Plant response rating, Crabgrass [17, 36]: 0 | Plant response rating, Corn [18, 35]: 0 | Plant response rating, Corn [18, 36]: 0 | Plant response rating, Surinam grass [19, 35]: 0 | Plant response rating, Surinam grass [19, 36]: 0 | Plant response rating, Foxtail, Giant [20, 35]: 0 | Plant response rating, Foxtail, Giant [20, 36]: 0 | Plant response rating, Lambsquarters [21, 35]: 0 | Plant response rating, Lambsquarters [21, 36]: 0 | Plant response rating, Pigweed [22, 35]: 0 | Plant response rating, Pigweed [22, 36]: 0 | Plant response rating, Morningglory [23, 35]: 0 | Plant response rating, Morningglory [23, 36]: 0 | Plant response rating, Barnyardgrass [24, 35]: 0 | Plant response rating, Barnyardgrass [24, 36]: 0 | Plant response rating, Rice [25]: 0 | Plant response rating, Flatsedge [26]: 90 | Plant response rating, Ducksalad [27]: 30 | Plant response rating, Barnyardgrass [28]: 80 | Rice plant response rating ([29]; Rate 250 g/ha): 0 | Rice plant response rating ([29]; Rate 500 g/ha): 0 | Plant response rating, Rice ([29]; Rate 62 g/ha): 0 | Plant response rating, Rice ([29]; Rate 125 g/ha): 0 | Flatsedge plant response rating ([30]; Rate 250 g/ha): 0 | Flatsedge plant response rating ([30]; Rate 500 g/ha): 80 | Plant response rating, Flatsedge ([30]; Rate 62 g/ha): 0 | Plant response rating, Flatsedge ([30]; Rate 125 g/ha): 0 | Ducksalad plant response rating ([31]; Rate 250 g/ha): 0 | Ducksalad plant response rating ([31]; Rate 500 g/ha): 0 | Plant response rating, Ducksalad ([31]; Rate 62 g/ha): 0 | Plant response rating, Ducksalad ([31]; Rate 125 g/ha): 0 | Barnyardgrass plant response rating ([32]; Rate 250 g/ha): 20 | Barnyardgrass plant response rating ([32]; Rate 500 g/ha): 20 | Plant response rating, Barnyardgrass ([32]; Rate 62 g/ha): 0 | Plant response rating, Barnyardgrass ([32]; Rate 125 g/ha): 0

CC(C)(C)c1ccn(C2CCN(c3cc(Cl)cc(Cl)c3)C2=O)n1 (centres unmarked) [Compound 55]
Plant response rating, Wheat [1, 33]: 0 | Plant response rating, Wheat [1, 34]: 0 | Plant response rating, Velvetleaf [2, 33]: 0 | Plant response rating, Velvetleaf [2, 34]: 0 | Plant response rating, Cocklebur [3, 33]: 10 | Plant response rating, Cocklebur [3, 34]: 10 | Plant response rating, Crabgrass [4, 33]: 0 | Plant response rating, Crabgrass [4, 34]: 0 | Plant response rating, Corn [5, 33]: 0 | Plant response rating, Corn [5, 34]: 0 | Plant response rating, Surinam grass [6, 33]: 0 | Plant response rating, Surinam grass [6, 34]: 0 | Plant response rating, Foxtail, Giant [7, 33]: 0 | Plant response rating, Foxtail, Giant [7, 34]: 0 | Plant response rating, Wild Oat [8, 33]: 0 | Plant response rating, Wild Oat [8, 34]: 0 | Plant response rating, Lambsquarters [9, 33]: 0 | Plant response rating, Lambsquarters [9, 34]: 0 | Plant response rating, Pigweed [10, 33]: 0 | Plant response rating, Pigweed [10, 34]: 0 | Plant response rating, Morningglory [11, 33]: 0 | Plant response rating, Morningglory [11, 34]: 30 | Plant response rating, Barnyardgrass [12, 33]: 0 | Plant response rating, Barnyardgrass [12, 34]: 0 | Plant response rating, Blackgrass [13, 33]: 0 | Plant response rating, Blackgrass [13, 34]: 0 | Plant response rating, Rice [14, 35]: 0 | Plant response rating, Rice [14, 36]: 0 | Plant response rating, Velvetleaf [15, 35]: 0 | Plant response rating, Velvetleaf [15, 36]: 0 | Plant response rating, Cocklebur [16, 36]: 0 | Plant response rating, Crabgrass [17, 35]: 0 | Plant response rating, Crabgrass [17, 36]: 0 | Plant response rating, Corn [18, 35]: 0 | Plant response rating, Corn [18, 36]: 0 | Plant response rating, Surinam grass [19, 35]: 0 | Plant response rating, Surinam grass [19, 36]: 0 | Plant response rating, Foxtail, Giant [20, 35]: 0 | Plant response rating, Foxtail, Giant [20, 36]: 0 | Plant response rating, Lambsquarters [21, 35]: 0 | Plant response rating, Lambsquarters [21, 36]: 0 | Plant response rating, Pigweed [22, 35]: 0 | Plant response rating, Morningglory [23, 35]: 0 | Plant response rating, Morningglory [23, 36]: 0 | Plant response rating, Barnyardgrass [24, 35]: 0 | Plant response rating, Barnyardgrass [24, 36]: 0 | Plant response rating, Rice [25]: 0 | Plant response rating, Flatsedge [26]: 100 | Plant response rating, Ducksalad [27]: 80 | Plant response rating, Barnyardgrass [28]: 100 | Rice plant response rating ([29]; Rate 250 g/ha): 0 | Rice plant response rating ([29]; Rate 500 g/ha): 0 | Plant response rating, Rice ([29]; Rate 62 g/ha): 0 | Plant response rating, Rice ([29]; Rate 125 g/ha): 0 | Flatsedge plant response rating ([30]; Rate 250 g/ha): 90 | Flatsedge plant response rating ([30]; Rate 500 g/ha): 100 | Plant response rating, Flatsedge ([30]; Rate 62 g/ha): 40 | Plant response rating, Flatsedge ([30]; Rate 125 g/ha): 90 | Ducksalad plant response rating ([31]; Rate 250 g/ha): 50 | Ducksalad plant response rating ([31]; Rate 500 g/ha): 50 | Plant response rating, Ducksalad ([31]; Rate 62 g/ha): 0 | Plant response rating, Ducksalad ([31]; Rate 125 g/ha): 40 | Barnyardgrass plant response rating ([32]; Rate 250 g/ha): 100 | Barnyardgrass plant response rating ([32]; Rate 500 g/ha): 100 | Plant response rating, Barnyardgrass ([32]; Rate 62 g/ha): 0 | Plant response rating, Barnyardgrass ([32]; Rate 125 g/ha): 50
